# Reference: BigSolDB 2.1
"solubility (mole fraction) (in ethanol, 288.15 K)","solubility (mole fraction) (in ethanol, 293.15 K)","solubility (mole fraction) (in ethanol, 298.15 K)","solubility (mole fraction) (in ethanol, 303.15 K)","solubility (mole fraction) (in ethanol, 308.15 K)","solubility (mole fraction) (in water, 288.15 K)","solubility (mole fraction) (in water, 293.15 K)","solubility (mole fraction) (in water, 298.15 K)","solubility (mole fraction) (in water, 303.15 K)","solubility (mole fraction) (in water, 308.15 K)",Compound
1.6e-05,2e-05,2.8e-05,3.1e-05,3.9e-05,0.00379,0.00418,0.0046,0.00515,0.0057,N[C@@H](Cc1cnc[nH]1)C(=O)O
0.000142,0.000178,0.000209,0.000246,0.000284,0.00116,0.00119,0.00122,0.00125,0.00128,N[C@@H](Cc1c[nH]c2ccccc12)C(=O)O
